Test results: ChEMBL document CHEMBL1134038, “New triterpenes, myrrhanol A and myrrhanone A, from guggul-gum resins, and their potent anti-inflammatory effect on adjuvant-induced air-pouch granuloma of mice” (2001)

How the values were obtained:
Format in all cases: functional
Mus musculus [1] = test: Weak anti-inflammatory and inflammatory effect on inflammatory process IV (granuloma formation) at a log dose of -3g/kg, ip, in adjuvant-induced air-pouch granuloma of mice(**)
Mus musculus [2] = test: Inhibitory effect on inflammatory process II (migration: inflammatory cell count) at a log dose of -5.25mol/kg, ip relative to hydrocortisone on adjuvant-induced air-pouch granulomas of mice
Mus musculus [3] = species: Mus musculus; test: Inhibitory dose required against exudation (pouch fluid weight) tested for antiinflammatory activity in mice(parentheses value represents 95% confidence limits); settings: read-out: ID50 (the source's name)
Mus musculus [4] = test: Anti-inflammatory effect on inflammatory process I (exudation: pouch fluid weight) at a log dose of -3g/kg, ip, in adjuvant-induced air-pouch granuloma of mice(*)
Mus musculus [5] = species: Mus musculus; test: Inhibitory dose required against angiogenesis (carmine content) tested for antiinflammatory activity in mice(parentheses value represents 95% confidence limits); settings: read-out: ID50 (the source's name)
Mus musculus [6] = test: Inhibitory effect on inflammatory process I (exudation: pouch fluid weight) at a log dose of -6mol/kg, ip relative to hydrocortisone on adjuvant-induced air-pouch granulomas of mice
Mus musculus [7] = test: Weak anti-inflammatory and inflammatory effect on inflammatory process I (exudation: pouch fluid weight) at a log dose of -3g/kg, ip, in adjuvant-induced air-pouch granuloma of mice(**)
Mus musculus [8] = test: Inhibitory effect on inflammatory process I (exudation: pouch fluid weight) at a log dose of -5.25mol/kg, ip relative to hydrocortisone on adjuvant-induced air-pouch granulomas of mice
Mus musculus [9] = test: Weak anti-inflammatory and inflammatory effect on inflammatory process IV (granuloma formation) at a log dose of -1.5g/kg, ip, in adjuvant-induced air-pouch granuloma of mice(**)
Mus musculus [10] = test: Weak anti-inflammatory and inflammatory effect on inflammatory process III (angiogenesis: carmine content) at a log dose of -1.5g/kg, ip, in adjuvant-induced air-pouch granuloma of mice(**)
Mus musculus [11] = test: Anti-inflammatory effect on inflammatory process II (migration: inflammatory cell count) at a log dose of -2.25g/kg, ip, in adjuvant-induced air-pouch granuloma of mice(*)
Mus musculus [12] = test: Inhibitory effect on inflammatory process IV (granuloma formation) at a log dose of -6mol/kg, ip relative to hydrocortisone on adjuvant-induced air-pouch granulomas of mice
Mus musculus [13] = test: Weak anti-inflammatory and inflammatory effect on inflammatory process III (angiogenesis: carmine content) at a log dose of -3g/kg, ip, in adjuvant-induced air-pouch granuloma of mice(**)
Mus musculus [14] = species: Mus musculus; test: Inhibitory dose required against granuloma formation tested for antiinflammatory activity in mice(parentheses value represents 95% confidence limits); settings: read-out: ID50 (the source's name)
Mus musculus [15] = test: Anti-inflammatory effect on inflammatory process III (angiogenesis: carmine content) at a log dose of -2.25g/kg, ip, in adjuvant-induced air-pouch granuloma of mice(*)
Mus musculus [16] = test: Anti-inflammatory effect on inflammatory process IV (granuloma formation) at a log dose of -1.5g/kg, ip, in adjuvant-induced air-pouch granuloma of mice(*)
Mus musculus [17] = test: Inhibitory effect on inflammatory process III (angiogenesis: carmine content) at a log dose of -5.25mol/kg, ip relative to hydrocortisone on adjuvant-induced air-pouch granulomas of mice
Mus musculus [18] = test: Weak anti-inflammatory and inflammatory effect on inflammatory process II (migration: inflammatory cell count) at a log dose of -3g/kg, ip, in adjuvant-induced air-pouch granuloma of mice(**)
Mus musculus [19] = test: Inhibitory effect on inflammatory process III (angiogenesis: carmine content) at a log dose of -5.6mol/kg, ip relative to hydrocortisone on adjuvant-induced air-pouch granulomas of mice
Mus musculus [20] = test: Inhibitory effect on inflammatory process II (migration: inflammatory cell count) at a log dose of -6mol/kg, ip relative to hydrocortisone on adjuvant-induced air-pouch granulomas of mice
Mus musculus [21] = test: Weak anti-inflammatory and inflammatory effect on inflammatory process IV (granuloma formation) at a log dose of -2.2g/kg, ip, in adjuvant-induced air-pouch granuloma of mice(**)
Mus musculus [22] = test: Anti-inflammatory effect on inflammatory process III (angiogenesis: carmine content) at a log dose of -1.5g/kg, ip, in adjuvant-induced air-pouch granuloma of mice(*)
Mus musculus [23] = test: Anti-inflammatory effect on inflammatory process I (exudation: pouch fluid weight) at a log dose of -1.5g/kg, ip, in adjuvant-induced air-pouch granuloma of mice(*)
Mus musculus [24] = test: Inhibitory effect on inflammatory process III (angiogenesis: carmine content) at a log dose of -6mol/kg, ip relative to hydrocortisone on adjuvant-induced air-pouch granulomas of mice
Mus musculus [25] = test: Anti-inflammatory effect on inflammatory process IV (granuloma formation) at a log dose of -3g/kg, ip, in adjuvant-induced air-pouch granuloma of mice(*)
Mus musculus [26] = test: Inhibitory effect on inflammatory process II (migration: inflammatory cell count) at a log dose of -5.6mol/kg, ip relative to hydrocortisone on adjuvant-induced air-pouch granulomas of mice
Mus musculus [27] = test: Weak anti-inflammatory and inflammatory effect on inflammatory process I (exudation: pouch fluid weight) at a log dose of -1.5g/kg, ip, in adjuvant-induced air-pouch granuloma of mice(**)
Mus musculus [28] = test: Anti-inflammatory effect on inflammatory process III (angiogenesis: carmine content) at a log dose of -3g/kg, ip, in adjuvant-induced air-pouch granuloma of mice(*)
Mus musculus [29] = test: Weak anti-inflammatory and inflammatory effect on inflammatory process II (migration: inflammatory cell count) at a log dose of -2.2g/kg, ip, in adjuvant-induced air-pouch granuloma of mice(**)
Mus musculus [30] = test: Anti-inflammatory effect on inflammatory process IV (granuloma formation) at a log dose of -2.25g/kg, ip, in adjuvant-induced air-pouch granuloma of mice(*)
Mus musculus [31] = test: Weak anti-inflammatory and inflammatory effect on inflammatory process I (exudation: pouch fluid weight) at a log dose of -2.2g/kg, ip, in adjuvant-induced air-pouch granuloma of mice(**)
Mus musculus [32] = test: Weak anti-inflammatory and inflammatory effect on inflammatory process II (migration: inflammatory cell count) at a log dose of -1.5g/kg, ip, in adjuvant-induced air-pouch granuloma of mice(**)
Mus musculus [33] = test: Weak anti-inflammatory and inflammatory effect on inflammatory process III (angiogenesis: carmine content) at a log dose of -2.2g/kg, ip, in adjuvant-induced air-pouch granuloma of mice(**)
Mus musculus [34] = test: Anti-inflammatory effect on inflammatory process II (migration: inflammatory cell count) at a log dose of -3g/kg, ip, in adjuvant-induced air-pouch granuloma of mice(*)
Mus musculus [35] = test: Anti-inflammatory effect on inflammatory process I (exudation: pouch fluid weight) at a log dose of -2.25g/kg, ip, in adjuvant-induced air-pouch granuloma of mice(*)
Mus musculus [36] = test: Inhibitory effect on inflammatory process IV (granuloma formation) at a log dose of -5.6mol/kg, ip relative to hydrocortisone on adjuvant-induced air-pouch granulomas of mice
Mus musculus [37] = test: Inhibitory effect on inflammatory process I (exudation: pouch fluid weight) at a log dose of -5.6mol/kg, ip relative to hydrocortisone on adjuvant-induced air-pouch granulomas of mice
Mus musculus [38] = test: Inhibitory effect on inflammatory process IV (granuloma formation) at a log dose of -5.25mol/kg, ip relative to hydrocortisone on adjuvant-induced air-pouch granulomas of mice
Mus musculus [39] = test: Anti-inflammatory effect on inflammatory process II (migration: inflammatory cell count) at a log dose of -1.5g/kg, ip, in adjuvant-induced air-pouch granuloma of mice(*)
Mus musculus [40] = species: Mus musculus; test: Inhibitory dose required against migration (inflammatory cell count) tested for antiinflammatory activity in mice(parentheses value represents 95% confidence limits); settings: read-out: ID50 (the source's name)

| Structure (SMILES) | Relative amount (Mus musculus [1]) [%] | ED50 (Mus musculus [3]) [µmol/kg] | Relative amount (Mus musculus [4]) [%] | ED50 (Mus musculus [5]) [µmol/kg] | Relative amount (Mus musculus [6]) [%] | Relative amount (Mus musculus [7]) [%] | Relative amount (Mus musculus [9]) [%] | Relative amount (Mus musculus [10]) [%] | Relative amount (Mus musculus [11]) [%] | Relative amount (Mus musculus [12]) [%] | Relative amount (Mus musculus [13]) [%] | ED50 (Mus musculus [14]) [µmol/kg] | Relative amount (Mus musculus [15]) [%] | Relative amount (Mus musculus [16]) [%] | Relative amount (Mus musculus [18]) [%] | Relative amount (Mus musculus [20]) [%] | Relative amount (Mus musculus [21]) [%] | Relative amount (Mus musculus [22]) [%] | Relative amount (Mus musculus [23]) [%] | Relative amount (Mus musculus [24]) [%] | also measured |
| --- | --- | --- | --- | --- | --- | --- | --- | --- | --- | --- | --- | --- | --- | --- | --- | --- | --- | --- | --- | --- | --- |
| C/C(=C\CC/C(C)=C/CC/C(C)=C/CC[C@@H]1[C@@]2(C)CC[C@H](O)C(C)(C)C2CC[C@@]1(C)O)CO (stereo partly specified) | 80 | 1.75 | 45 | 2.8 | 70 | 100 | 60 | 50 | 65 | 85 | 75 | 5.83 | <52 | <55 | 100 | 105 | 62 | <50 | <15 | 87 | Relative amount (Mus musculus [2]): 115%; Relative amount (Mus musculus [8]): <5%; Relative amount (Mus musculus [17]): <30%; Relative amount (Mus musculus [19]): <47%; Relative amount (Mus musculus [25]): <70%; Relative amount (Mus musculus [26]): 90%; Relative amount (Mus musculus [27]): 25%; Relative amount (Mus musculus [28]): <63%; Relative amount (Mus musculus [29]): 70%; Relative amount (Mus musculus [30]): <65%; Relative amount (Mus musculus [31]): 27%; Relative amount (Mus musculus [32]): 65%; Relative amount (Mus musculus [33]): 65%; Relative amount (Mus musculus [34]): 80%; Relative amount (Mus musculus [35]): 35%; Relative amount (Mus musculus [36]): <75%; Relative amount (Mus musculus [37]): <20%; Relative amount (Mus musculus [38]): <50%; Relative amount (Mus musculus [39]): 60% |
| C/C(=C\CC/C(C)=C/CC/C(C)=C/CC[C@@H]1[C@@]2(C)CCC(=O)C(C)(C)C2CC[C@@]1(C)O)CO (stereo partly specified) | 65 | – | 75 | – | 90 | 70 | 100 | 180 | 85 | 75 | 90 | – | 83 | <55 | 85 | 75 | 100 | <50 | 60 | 105 | Relative amount (Mus musculus [25]): 80%; Relative amount (Mus musculus [27]): 250%; Relative amount (Mus musculus [28]): 83%; Relative amount (Mus musculus [29]): 170%; Relative amount (Mus musculus [30]): <68%; Relative amount (Mus musculus [31]): 225%; Relative amount (Mus musculus [32]): 175%; Relative amount (Mus musculus [33]): 185%; Relative amount (Mus musculus [34]): 95%; Relative amount (Mus musculus [35]): 65%; Relative amount (Mus musculus [39]): 70% |
| C[C@]12CCC(=O)C=C1CCC1[C@@H]2[C@@H](O)C[C@@]2(C)[C@H]1CC[C@]2(O)C(=O)CO (single isomer, unassigned) [HYDROCORTISONE] | – | 6.31 | – | 22.1 | – | – | – | – | – | – | – | 29.2 | – | – | – | – | – | – | – | – | ED50 (Mus musculus [40]): 11.7 µmol/kg |
